Source: BindingDB's records for doi:10.1007/s10822-022-00478-x (Roche Innovation Center Basel, F. Hoffmann-La Roche Ltd., 2022)

Target: cAMP and cAMP-inhibited cGMP 3',5'-cyclic phosphodiesterase 10A (Homo sapiens, UniProt Q9Y233)
Experiment: PDE10A assay
Description: Compounds were diluted in 20 mM HEPES/NaOH (pH 7.5), 10 mM MgCl2 and 0.05 mg/ml bovine serum albumin. A fixed amount of 2 ng/well human PDE10A enzyme was added and incubated at room temperature for 15 min under agitation. The reaction was started by the addition of the substrate cocktail [3H]cGMP (Perkin Elmer NET337001MC, S.A. 13.5 Ci/mmol) / cGMP at a final concentration of 50 nM and incubated for an additional 15 min. The reaction was stopped by the addition of 0.5 mg/well of Y-Si SPA beads. The plates were shaken for 1 h, followed by a brief centrifugation (170 g for 1 min). The radioactivity bound to the beads was estimated using a TopCount (Perkin-Elmer). For the determination of IC50 values, a four parameters logistics equation was used. pIC50 is defined as − log10(IC50).

| Compound | IC50 |
| --- | --- |
| O=C(Nc1cnc(-c2ccccn2)s1)c1nc(C2CC2)ccc1Nc1cncnc1 | 2.26 nM |
| O=C(Nc1cc(-c2ccccn2)nn1C1CCCCC1)c1nc(C2CC2)ccc1Nc1cncnc1 | 1.32 nM |
| Cc1c(C(F)F)nc2ccc(C#Cc3nc(N4CCCC4)nn3C)nn12 [2-(Difluoromethyl)-3-methyl-6-((1-methyl-3-(pyrrolidin-1-yl)-1H-1,2,4-triazol-5-yl)ethynyl)imidazo[1,2-b]pyridazine] | 4.74 nM |
| CCc1nc2ccc(OCc3cccc(N4CCCC4)n3)nn2c1C [2-ethyl-3-methyl-6-((6-(pyrrolidin-1-yl)pyridin-2-yl)methoxy)imidazo[1,2-b]pyridazine] | 547 nM |
| Cc1nc2ccccc2nc1OCc1cccc(N2CCCC2)n1 [2-methyl-3-((6-(pyrrolidin-1-yl)pyridin-2-yl)methoxy)quinoxaline] | 38 nM |
| Cc1c(C(F)(F)F)nc2ccc(C#Cc3nc(N4CCCC4)n(C)n3)nn12 [3-Methyl-6-((1-methyl-5-(pyrrolidin-1-yl)-1H-1,2,4-triazol-3-yl)ethynyl)-2-(trifluoromethyl)imidazo[1,2-b]pyridazine] | 3.92 nM |
| c1cc(COc2nc(N3CCOCC3)c3ccccc3n2)nc(N2CCCC2)c1 [4-(2-((6-(pyrrolidin-1-yl)pyridin-2-yl)methoxy)quinazolin-4-yl)morpholine] | 58 nM |
| Cc1cc(C)n2nc(CCc3cncc(N4CCCC4)n3)nc2n1 [5,7-dimethyl-2-(2-(6-(pyrrolidin-1-yl)pyrazin-2-yl)ethyl)-[1,2,4]triazolo-[1,5-a]pyrimidine] | 307 nM |
| CN(C)c1nc(OCc2cccc(N3CCCC3)n2)nc2ccc(Cl)cc12 [6-chloro-n,n-dimethyl-2-((6-(pyrrolidin-1-yl)pyridin-2-yl)methoxy)quinazolin-4-amine] | 7.71 nM |
| CCN(C)C(=O)c1cnn(C)c1C(=O)Nc1ccn2cc(-c3cccc(OCCCF)c3)nc2n1 [Roche-Dataset for PDE10A, Compound 1] | 6.05 nM |
| COCCN(C)C(=O)c1cnn(C)c1C(=O)Nc1ccn2cc(-c3cccc(OCCCF)c3)nc2n1 [Roche-Dataset for PDE10A, Compound 3] | 15 nM |
| Cn1ncc(C(=O)N2CCC2)c1C(=O)Nc1ccn2nc(-c3ccccc3OCCCF)nc2c1 [Roche-Dataset for PDE10A, Compound 11] | 0.3 nM |
| Cn1ncc(C(=O)N2CCC2)c1C(=O)Nc1ccn2nc(-c3ccccc3OCCF)nc2c1 [Roche-Dataset for PDE10A, Compound 14] | 0.35 nM |
| Cc1nc2ccccc2nc1CCc1nc(-c2ccccc2)cn1-c1ccccn1 [Roche-Dataset for PDE10A, Compound 17] | 1.82 nM |
| CN(CCO)c1nc(OCc2nc(-c3ccccc3)cn2C)nc2ccc(Cl)cc12 [Roche-Dataset for PDE10A, Compound 19] | 3.09 nM |
| CCN(C)C(=O)c1cnn(C)c1C(=O)Nc1ccn2cc(-c3cccc(OCC(=O)OC)c3)nc2n1 [Roche-Dataset for PDE10A, Compound 20] | 7.93 nM |
| Cc1c(Cl)cc(OCC(=O)N2CCOCC2)c2nc(CCc3nc(N4CCCC4)nn3C)nn12 [Roche-Dataset for PDE10A, Compound 23] | 2.07 nM |
| O=C(Nc1cc(-c2ccccn2)nn1C1CCOCC1)c1nc(C2CC2)ccc1Nc1cncnc1 [Roche-Dataset for PDE10A, Compound 24] | 1.41 nM |
| CCN(C)C(=O)c1cnn(CCF)c1C(=O)Nc1ccn2cc(-c3ccccc3)nc2n1 [Roche-Dataset for PDE10A, Compound 26] | 10000 nM |

| Compound | IC50 |
| --- | --- |
| Cn1ncc(C(=O)N2CCC2)c1C(=O)Nc1ccn2cc(-c3cccc(OCCCF)c3)nc2n1 [Roche-Dataset for PDE10A, Compound 28] | 7.34 nM |
| Cc1cc(-n2nc(N3CCCC3)nc2CCc2nc3c(C(F)(F)F)cc(Cl)c(C)n3n2)ccn1 [Roche-Dataset for PDE10A, Compound 34] | 1.07 nM |
| Cn1cc(-c2ccccc2)nc1CCNC(=O)c1nc(C2CC2)cnc1Nc1cncnc1 [Roche-Dataset for PDE10A, Compound 36] | 16 nM |
| COc1ccc(Cn2nc(CCc3nc4c(Cl)cc(Cl)c(C)n4n3)nc2N2CCCC2)cc1 [Roche-Dataset for PDE10A, Compound 37] | 2.58 nM |
| COC[C@H]1CCCN1c1nc(CCc2nc3c(C)ncc(C)n3n2)n(Cc2ccc(OC)cc2)n1 [Roche-Dataset for PDE10A, Compound 38] | 15 nM |
| CCN(C)C(=O)c1cnn(C)c1C(=O)Nc1ccn2cc(-c3cccc(OCCO)c3)nc2n1 [Roche-Dataset for PDE10A, Compound 39] | 8.81 nM |
| Cc1cc(-n2nc(CCc3nc4c(C(F)(F)F)cc(Cl)c(C)n4n3)nc2N2CCCC2)ccn1 [Roche-Dataset for PDE10A, Compound 40] | 9.83 nM |
| CN(C)C(=O)c1cnn(C)c1C(=O)Nc1ccn2cc(-c3cccc(OCCCF)c3)nc2n1 [Roche-Dataset for PDE10A, Compound 43] | 7.17 nM |
| COCCN(C)C(=O)c1cnn(C)c1C(=O)Nc1ccn2cc(-c3cccc(OCCF)c3)nc2n1 [Roche-Dataset for PDE10A, Compound 45] | 13 nM |
| CC(C)n1ncc2cc(CCc3nc(-c4ccccc4)cn3C)ncc21 [Roche-Dataset for PDE10A, Compound 48] | 859 nM |
| Cn1cc(-c2ccccc2)nc1CCc1nc2cccc(Cl)c2c(=O)[nH]1 [Roche-Dataset for PDE10A, Compound 52] | 122 nM |
| Cn1cc(-c2ccccc2)nc1CCc1nc(N2CCOCC2)c2cc(Cl)ccc2n1 [Roche-Dataset for PDE10A, Compound 54] | 1.08 nM |
| CN(C)c1nc(CCc2nc(-c3ccccc3)cn2C)nc2ccc(Cl)cc12 [Roche-Dataset for PDE10A, Compound 55] | 3.25 nM |
| Cn1cc(-c2ccccc2)nc1COc1ncc(C2CC2)nc1C(=O)NCc1ccccc1 [Roche-Dataset for PDE10A, Compound 59] | 57 nM |
| Cc1nc2ccccc2nc1CCc1nc(-c2ccccc2)cn1CC1CC1 [Roche-Dataset for PDE10A, Compound 62] | 9.29 nM |
| Cn1cc(-c2ccccc2)nc1/C=C/c1nc(N2CCOCC2)c2cc(Cl)ccc2n1 [Roche-Dataset for PDE10A, Compound 64] | 1.31 nM |
| Cn1ncc(C(=O)N2CCC2)c1C(=O)Nc1ccn2nc(-c3cccc(OCCF)n3)nc2c1 [Roche-Dataset for PDE10A, Compound 66] | 5.36 nM |
| Cc1cc(Cl)cc2c(=O)[nH]c(CCc3nc(-c4ccccc4)cn3C)nc12 [Roche-Dataset for PDE10A, Compound 70] | 81 nM |
| Cn1ncc(C(=O)N2CCC2)c1C(=O)Nc1ccn2nc(-c3ccccc3OCF)nc2c1 [Roche-Dataset for PDE10A, Compound 71] | 1.73 nM |

| Compound | IC50 |
| --- | --- |
| Cc1nc2ccccc2nc1CCc1nc(-c2ccccc2)cn1CC(F)(F)F [Roche-Dataset for PDE10A, Compound 72] | 178 nM |
| CCN(C)C(=O)c1cnn(C)c1C(=O)Nc1ccn2cc(-c3cccc(O)c3)nc2n1 [Roche-Dataset for PDE10A, Compound 73] | 3.47 nM |
| Cc1cccc2c(=O)[nH]c(CCc3nc(-c4ccccc4)cn3C)nc12 [Roche-Dataset for PDE10A, Compound 74] | 15 nM |
| Cc1nc(C(=O)N2CCC2)c(C(=O)Nc2ccn3nc(-c4ccccc4)nc3c2)n1C [Roche-Dataset for PDE10A, Compound 75] | 20 nM |
| Cn1ncc(C(=O)N2CCC2)c1C(=O)Nc1ccn2nc(-c3cccc(OCCF)c3)nc2c1 [Roche-Dataset for PDE10A, Compound 76] | 0.9 nM |
| Cc1c(C#N)nc2ccc(C#Cc3nc(-c4ccccc4)cn3C)nn12 [Roche-Dataset for PDE10A, Compound 79] | 1.27 nM |
| COCCN(C)C(=O)c1cnn(C)c1C(=O)Nc1ccn2cc(-c3cccc(F)n3)nc2n1 [Roche-Dataset for PDE10A, Compound 81] | 163 nM |
| Cn1ncc(C(=O)NCCOCCO)c1C(=O)Nc1ccn2nc(-c3ccccc3)nc2c1 [Roche-Dataset for PDE10A, Compound 84] | 14 nM |
| O=C(Nc1ccn2nc(-c3ccccc3)nc2c1)c1cc(Cl)nc(N2CCCCC2)c1 [Roche-Dataset for PDE10A, Compound 86] | 52 nM |
| CCn1cc(-c2ccccc2)nc1CCc1nc2ccccc2nc1C [Roche-Dataset for PDE10A, Compound 87] | 41 nM |
| CN(C)c1nc(OCc2nc(-c3ccccc3)cn2C)nc2ccc(Cl)cc12 [Roche-Dataset for PDE10A, Compound 89] | 3.68 nM |
| Cn1cc(-c2ccccc2)nc1CCNC(=O)c1cccn2c(C3CC3)nnc12 [Roche-Dataset for PDE10A, Compound 92] | 43 nM |
| Cn1cc(-c2ccccc2)nc1CCc1nc2ccc(Cl)cc2c(=O)[nH]1 [Roche-Dataset for PDE10A, Compound 93] | 9.14 nM |
| Cn1cc(-c2ccccc2)nc1CCc1nc(-c2ccccc2)cc(=O)[nH]1 [Roche-Dataset for PDE10A, Compound 94] | 987 nM |
| CN(c1cncnc1)c1ccc(C2CC2)nc1C(=O)N[C@@H]1CCN(c2ccc(Br)cn2)C1 [Roche-Dataset for PDE10A, Compound 95] | 8340 nM |
| Cn1ncc(C(=O)N2CCC2)c1C(=O)Nc1ccn2nc(-c3cccc(OCF)c3)nc2c1 [Roche-Dataset for PDE10A, Compound 96] | 0.85 nM |
| COc1ccc(Cn2nc(N3CCCC3)nc2CCc2nc3c(Cl)cc(Cl)c(C)n3n2)cc1 [Roche-Dataset for PDE10A, Compound 97] | 0.64 nM |
| Cn1cc(-c2ccccc2)nc1CCc1nc2ccccc2nc1N1CCCC1 [Roche-Dataset for PDE10A, Compound 98] | 3.44 nM |
| Cc1cc(CNC(=O)c2cnn(C)c2C(=O)Nc2ccn3cc(-c4ccccc4)nc3n2)n[nH]1 [Roche-Dataset for PDE10A, Compound 99] | 17 nM |
